We go through 26 molecules from US9090593B2, “Bicyclic compounds as Pim inhibitors” (AMGEN INC., priority 2010, dated 2015).

Holding throughout (type): biochemical
The target in test [1] is T1, full length recombinant Pim-1 protein (Homo sapiens, UniProt P11309).
T1 construct: by full length recombinant Pim-1, Pim-2, or Pim-3 protein; hexahistidine tag followed by a thrombin cleavage site (N); made in house; host or cells: Sf9 (baculovirus) or E. coli (pET28)
Kind of test: Pim-1 enzyme assay (HTRF, phosphorylation of biotinylated-BAD (S112) peptide). The settings on record: enzyme assay, Pim-1; read-out: Pim_1_IC50. The method, boiled down:
(§1)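 Kinase: full-length human Pim-1/Pim-2, His6-thrombin tagged. Substrate biotin-BAD (S112) peptide. Buffer 60 mM Hepes pH 7.0, 0.05% BSA, 2 mM DTT. Stop 3 mM EDTA. Detection HTRF (Eu anti-pBAD/SA-APC). IC50 by 4-parameter logistic on POC.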
In general terms: TR-FRET usually uses a lanthanide donor and a delayed reading to cut background.

The target in test [2] is T2, full length recombinant Pim-2 protein (Homo sapiens, UniProt Q9P1W9).
T2 construct: by full length recombinant Pim-1, Pim-2, or Pim-3 protein; hexahistidine tag followed by a thrombin cleavage site (N); made in house; host or cells: Sf9 (baculovirus) or E. coli (pET28)
T2 sequence (Q9P1W9 whole entry): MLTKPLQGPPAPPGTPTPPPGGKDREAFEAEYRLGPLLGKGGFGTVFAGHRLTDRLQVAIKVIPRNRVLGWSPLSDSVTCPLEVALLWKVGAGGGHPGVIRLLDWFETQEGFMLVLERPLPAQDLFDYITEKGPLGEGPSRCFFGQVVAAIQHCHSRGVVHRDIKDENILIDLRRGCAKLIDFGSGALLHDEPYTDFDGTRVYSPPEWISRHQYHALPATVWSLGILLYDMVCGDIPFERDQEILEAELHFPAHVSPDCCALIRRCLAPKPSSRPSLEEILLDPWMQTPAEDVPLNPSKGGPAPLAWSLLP
Kind of test: Pim-2 enzyme assay (HTRF, phosphorylation of biotinylated-BAD (S112) peptide). The conditions noted are these: enzyme assay, Pim-2; read-out: Pim2_IC50. The method, boiled down: as §1

Test [3] has as its target T3, full length recombinant Pim-3 protein (Homo sapiens, UniProt Q86V86).
T3 construct: by full length recombinant Pim-1, Pim-2, or Pim-3 protein; purchased Millipore (UK)
Kind of test: Pim-3 enzyme assay (HTRF, phosphorylation of biotinylated-BAD (S112) peptide). The settings on record: read-out: Pim3 IC50. The source says:
Pim-3 was purchased from Millipore (UK).
The phosphorylation of biotinylated-BAD (S112) peptide by full length recombinant Pim-1, Pim-2, or Pim-3 protein was detected with streptavidin:Allophycocyanin (APC) conjugate and a europium (Eu) labeled antibody directed against phosphorylated-BAD (S112). […] The fluorescence is directly proportional to the amount of phosphorylated BAD peptide present in the reaction.
A reference compound was included on each assay plate in order to validate that plate; on one plate of every assay run, two additional reference compounds were included.
The final buffer conditions were as follows: 60 mM Hepes, pH 7.0, 0.05% BSA, 2 mM DTT. […] The reaction was stopped by the addition of 3 mM EDTA, and fluorescence was measured by an HTRF® Rubystar microplate reader. For each plate, percent of control (POC) values were calculated for each well. Values for the IC50 IP were estimated using a standard 4-parameter logistic model.

T1 sequence (P11309 whole entry): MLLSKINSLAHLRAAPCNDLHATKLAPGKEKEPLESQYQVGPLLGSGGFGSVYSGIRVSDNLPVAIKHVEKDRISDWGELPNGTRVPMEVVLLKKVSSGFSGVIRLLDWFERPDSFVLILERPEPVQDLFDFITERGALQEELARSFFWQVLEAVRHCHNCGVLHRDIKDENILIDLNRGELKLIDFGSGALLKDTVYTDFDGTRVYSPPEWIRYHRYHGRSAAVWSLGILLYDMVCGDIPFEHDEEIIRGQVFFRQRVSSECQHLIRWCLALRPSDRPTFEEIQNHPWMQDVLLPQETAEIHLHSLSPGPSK

Regarding `O[C@H]1CCN(c2cncc(-c3n[nH]c4ccc(-c5c(F)cccc5F)cc34)n2)C1` [Example 175, (3S)-1-(6-(5-(2,6-difluorophenyl)-1H-indazol-3-yl)-2-pyrazinyl)-3-pyrrolidinol], the results for the IC50 in test [1], in test [2] and in test [3] were 168 nM, 1180 nM and 153 nM, respectively.

With `CC(C)Oc1cncc(-c2ccc3[nH]cc(-c4cc(N)ccn4)c3c2)n1` [Example 218, 2-(5-(6-(1-methylethoxy)-2-pyrazinyl)-1H-indol-3-yl)-4-pyridinamine], the IC50 in test [1] was 805 nM; in test [2] it was above 3000 nM; in test [3] it was 317 nM.

Consider `CC(C)Oc1cncc(-c2ccc3[nH]cc(-c4cccc(N5CCCC5=O)n4)c3c2)n1` [Example 229, 1-(6-(5-(6-(1-methylethoxy)-2-pyrazinyl)-1H-indol-3-yl)-2-pyridinyl)-2-pyrrolidinone], for which the IC50 is 251 nM in test [1], above 3000 nM in test [2] and 147 nM in test [3].

As to `c1cc2[nH]nc(-c3cncc(O[C@@H]4CCCNC4)n3)c2cc1C1CCOCC1` [Example 151, 3-(6-((3R)-3-piperidinyloxy)-2-pyrazinyl)-5-(tetrahydro-2H-pyran-4-yl)-1H-indazole], the values for the IC50 in test [1], in test [2] and in test [3] were 27 nM, 118 nM and 129 nM, respectively.

Turning to `Fc1cccc(F)c1-c1ccc2[nH]cc(-c3nccc(NC4CCNCC4)n3)c2c1` [Example 210, 2-(5-(2,6-difluorophenyl)-1H-indol-3-yl)-N-4-piperidinyl-4-pyrimidinamine], the IC50 in test [1] worked out at 120 nM; in test [2] it was 424 nM; in test [3], 91 nM.

For the molecule `Brc1ccc2[nH]nc(-c3cncc(O[C@@H]4CCCNC4)n3)c2c1` [Example 135, 5-bromo-3-(6-((3R)-3-piperidinyloxy)-2-pyrazinyl)-1H-indazole], the IC50 in test [1] was 83 nM; in test [2] it was 227 nM; in test [3], 82 nM.

As for `Cn1cc(-c2ccc3[nH]nc(-c4cncc(O[C@@H]5CCCNC5)n4)c3c2)cn1` [Example 129, 5-(1-methyl-1H-pyrazol-4-yl)-3-(6-((3R)-3-piperidinyloxy)-2-pyrazinyl)-1H-indazole], the IC50 stood at 3 nM in test [1], 30 nM in test [2] and 3 nM in test [3].

With `CC(C)Oc1cncc(-c2ccc3[nH]cc(-c4ccc(F)cn4)c3c2)n1` [Example 215, 3-(5-fluoro-2-pyridinyl)-5-(6-(1-methylethoxy)-2-pyrazinyl)-1H-indole], the IC50 in test [1] was 1640 nM; in test [2], above 3000 nM; in test [3], 538 nM.

`CCC(=O)Nc1ccc2[nH]cc(-c3cncc(N4CCC(N)CC4)n3)c2c1` [Example 234, N-(3-(6-(4-aminopiperidin-1-yl)pyrazin-2-yl)-1H-indol-5-yl)propionamide]: the IC50 in test [1] was 161 nM; in test [2], 2570 nM; in test [3], 348 nM.

Consider “3-(6-(4-amino-1-piperidinyl)-2-pyrazinyl)-N-phenyl-1H-indole-5-carboxamide [Example 240]”, for which the IC50 in test [1] was 254 nM; in test [2] it was above 3000 nM; in test [3], 719 nM.

As for `NC1CCN(c2cncc(-c3n[nH]c4ccc(-c5cccc6c5C5(CCOCC5)CN6)cc34)n2)CC1` [Example 106, 1-(6-(5-(1,2,2′,3′,5′,6′-hexahydrospiro[indole-3,4′-pyran]-4-yl)-1H-indazol-3-yl)-2-pyrazinyl)-4-piperidinamine], the IC50 in test [1] was determined as 499 nM; in test [2], 897 nM; in test [3], 278 nM.

With `FC(F)(F)Oc1cccc(-c2ccc3[nH]nc(-c4cncc(O[C@@H]5CCCNC5)n4)c3c2)c1` [Example 150, 3-(6-((3R)-3-piperidinyloxy)-2-pyrazinyl)-5-(3-(trifluoromethoxy)phenyl)-1H-indazole], the IC50 in test [1] came to 35 nM; in test [2] it was 214 nM; in test [3], 29 nM.

For `CC(C)NC(=O)c1ccc2[nH]cc(-c3cncc(N4CCC(N)CC4)n3)c2c1` [Example 239, 3-(6-(4-aminopiperidin-1-yl)pyrazin-2-yl)-N-isopropyl-1H-indole-5-carboxamide], the IC50 is 166 nM in test [1], above 3000 nM in test [2] and 347 nM in test [3].

`N#Cc1ccc2c(-c3ccc4[nH]nc(-c5cncc(N6CCC(N)CC6)n5)c4c3)ccnc2c1` [Example 112, 4-(3-(6-(4-amino-1-piperidinyl)-2-pyrazinyl)-1H-indazol-5-yl)-7-quinolinecarbonitrile]: the IC50 in test [1] came out at 32 nM; in test [2] it was 521 nM; in test [3], 116 nM.

Turning to `CC(C)Oc1cccc(-c2ccc3[nH]nc(-c4cncc(O[C@@H]5CCCNC5)n4)c3c2)n1` [Example 144, 5-(6-(1-methylethoxy)-2-pyridinyl)-3-(6-((3R)-3-piperidinyloxy)-2-pyrazinyl)-1H-indazole], the values for the IC50 in test [1], in test [2] and in test [3] were 27 nM, 252 nM and 26 nM, respectively.

Regarding `NC1CCN(c2cncc(-c3c[nH]c4ccc(C(=O)O)cc34)n2)CC1` [Example 237, 3-(6-(4-aminopiperidin-1-yl)pyrazin-2-yl)-1H-indole-5-carboxylic acid], the IC50 came to 195 nM in test [1], 325 nM in test [2] and 122 nM in test [3].

Regarding `COc1cnc(-c2c[nH]c3ccc(-c4cncc(OC(C)C)n4)cc23)cn1` [Example 222, 3-(5-methoxy-2-pyrazinyl)-5-(6-(1-methylethoxy)-2-pyrazinyl)-1H-indole], the IC50 is 732 nM in test [1], above 3000 nM in test [2] and 445 nM in test [3].

`NC(=O)c1ccc2[nH]cc(-c3cncc(N4CCC(N)CC4)n3)c2c1` [Example 238, 3-(6-(4-aminopiperidin-1-yl)pyrazin-2-yl)-1H-indole-5-carboxamide]: the IC50 in test [1] is 107 nM; in test [2], 755 nM; in test [3], 311 nM.

As to `NC1CCN(c2cncc(-c3n[nH]c4ccc(-c5ccnc6cc(OC(F)(F)F)ccc56)cc34)n2)CC1` [Example 111, 1-(6-(5-(7-(trifluoromethoxy)-4-quinolinyl)-1H-indazol-3-yl)-2-pyrazinyl)-4-piperidinamine], the IC50 in test [1] is 29 nM; in test [2] it was 292 nM; in test [3] it was 87 nM.

For `CC(C)Oc1cncc(-c2ccc3[nH]cc(-c4cccc(-n5cccn5)n4)c3c2)n1` [Example 223, 5-(6-(1-methylethoxy)-2-pyrazinyl)-3-(6-(1H-pyrazol-1-yl)-2-pyridinyl)-1H-indole], the IC50 was 142 nM in test [1], above 3000 nM in test [2] and 150 nM in test [3].

Take `CN(C)c1cncc(-c2n[nH]c3ccc(-c4c(F)cccc4F)cc23)n1` [Example 181, 6-(5-(2,6-difluorophenyl)-1H-indazol-3-yl)-N,N-dimethyl-2-pyrazinamine]: the IC50 stood at 206 nM in test [1], 2080 nM in test [2] and 146 nM in test [3].

In the case of `Nc1ccc2[nH]cc(-c3cncc(N4CCC(N)CC4)n3)c2c1` [Example 233, 3-(6-(4-aminopiperidin-1-yl)pyrazin-2-yl)-1H-indol-5-amine], the results for the IC50 in test [1], in test [2] and in test [3] were 845 nM, above 3000 nM and 1760 nM, respectively.

Turning to `c1cc(C2CC2)cc(-c2ccc3[nH]nc(-c4cncc(O[C@@H]5CCCNC5)n4)c3c2)n1` [Example 141, 5-(4-cyclopropyl-2-pyridinyl)-3-(6-((3R)-3-piperidinyloxy)-2-pyrazinyl)-1H-indazole], the IC50 in test [1] turned out to be 42 nM; in test [2], 435 nM; in test [3], 32 nM.

Take “3-(6-(4-amino-1-piperidinyl)-2-pyrazinyl)-N-benzyl-1H-indole-5-carboxamide [Example 241]”: the IC50 stood at 376 nM in test [1], 2480 nM in test [2] and 538 nM in test [3].

For the molecule `Fc1cccc(F)c1-c1ccc2[nH]nc(-c3cncc(O[C@@H]4CNCC[C@H]4F)n3)c2c1` (single isomer, unassigned) [Example 18, 5-(2,6-difluorophenyl)-3-(6-(trans-4-fluoropiperidin-3-yloxy)pyrazin-2-yl)-1H-indazole], the results for the IC50 in test [1], in test [2] and in test [3] were 75 nM, 264 nM and 34 nM, respectively.

`Nc1ccc(OC(F)(F)F)c(-c2ccc3[nH]nc(-c4cncc(N5CCC(N)CC5)n4)c3c2)c1` [Example 107, 1-(6-(5-(5-amino-2-(trifluoromethoxy)phenyl)-1H-indazol-3-yl)-2-pyrazinyl)-4-piperidinamine]: the IC50 stood at 30 nM in test [1], 192 nM in test [2] and 67 nM in test [3].
